Test results taken from patent US7645740B2, “Peptide sequence found in Laminin 5 for treating skin impairments” (Laboratoires d'Anjou Centre National de la Recherche …, priority 2004, dated 2010).

Key:
Format in all cases: cell-based
[1] = system: normal human keratinocytes; assay: Cell adhesion test to immobilized peptides, normal human keratinocytes
Method: (§1) Dose-dependent cell adhesion of normal human keratinocytes to various peptides 1, 2 and 3. The peptides were immobilized in 96-well plates at the concentrations given on the abscissa. 10^5 cells were deposited in each well and plates were incubated at 37° C. for 1 hour. After washing, attached cells were fixed and cell adhesion was measured as described in the methodology section.
(§2) Peptides 1, 2 and 3 were used for the cell adhesion experiments. A range of 7 decreasing concentrations (100 micrograms/ml, 50 micrograms/ml, 25 micrograms/ml, 12.5 micrograms/ml, 6.25 micrograms/ml, 3.125 micrograms/ml and 1.562 micrograms/ml) was made up by successive dilution in PBS (Phosphate Buffer Saline, KH2PO4 1.54 mM; Na2HPO4 1.42 mM; NaCl-131 mM) using a starting solution at a concentration of 1 mg/ml. These solutions were immediately distributed onto a 96-well culture plate (Greinher, Dutscher, Brumath, France) at a rate of 100 μl per well. Plates were then placed at +4° C. for 16 to 18 hours. The solutions were then removed by turning the plates and each well was saturated with a 1% PBS-BSA solution (bovine serum albumin). Three additional wells without the substrate underwent the same treatment and were used as blanks.
(§3) Epithelial cells were detached from the culture dishes using a trypsin/EDAT solution (0.05-0.02%) then suspended in DMEM medium without additives for the cell lines and in KBM-2 without additive for human keratinocytes. The number of seeded cells per well is given in the graphs (50,000 to 100,000 cells per well).
(§4) After cell seeding, the multi-well plates were placed in an incubator at 37° C. under 5% CO2. After incubation for 30 to 60 minutes, cells were observed under a phase contrast microscope in order to verify that the test was conducted correctly. The adhesion medium was then removed and each well was washed in a sterile PBS solution to remove non-adhering cells. The remaining cells, attached to the substrate, were then fixed using a solution of 1% glutaraldehyde in PBS for 15 minutes. The glutaraldehyde solution as removed and the cells were stained with a crystal violet solution diluted to 1% in distilled water for 30 minutes.
(§5) After rinsing in water several times, cells were permeabilized by means of a 0.02% triton solution for 15 minutes in order to solubilize the crystal violet. Absorbances were read at 570 nm using an ELISA plate reader (MR500, Dynatech, Guernsey, Channel Islands). Each experimental point was carried out in triplicate. The blank value represented the mean absorbance of 3 control wells (BSA). This was subtracted from each of the optical density values for the experimental points. We then calculated the mean for the three absorbance values for each of the triplicate samples.
The results are presented in the form of a graph with the absorbance values on the ordinate and the various substrate concentrations on the abscissa. Attached cells were photographed by phase contrast microscopy.
Freshly isolated normal human keratinocytes were used in a second experiment. As the basal keratinocytes of the epidermis are in direct contact with LN-5 in the skin, it was necessary to test their adhesion capacity to the peptide in question. Human keratinocytes were obtained from a foreskin biopsy (surgery waste, Pavillon T-Bis, Eduard Herriot Hospital). […]

[2] = system: HT1080 cells (human fibrosarcoma); assay: Cell adhesion test to immobilized peptides, HT1080
Method: as §1, with “cell line HT1080” for “normal human keratinocytes”, “8×10^4” for “10^5”
Dose-dependent cell adhesion of HT1080 cells to various peptide TALRIRATYGEY (SEQ ID NO. 1). The peptides were immobilized in 96-well plates in the quantities given on the abscissa. 8×10^4 cells and 15×10^4 cells were deposited in each well and plates were incubated at 37° C. for 1 hour. After washing, attached cells were fixed and cell adhesion was measured as described in the methodology section. Cells were observed by phase contrast microscopy then photographed. Bar =50 μm
as §2, §3, §4
as §5, with “This was subtracted from each of the optical density values for the experimental points.” left out
The results are presented in the form of a graph with the absorbance values on the ordinate and the various substrate concentrations on the abscissa. […]
A second approach was taken in order to determine the minimum quantity of active peptide and the number of adhering cells was increased in order to obtain a confluent cell network. […]

A431 cells = assay: Cell proliferation test (XTT), A431; settings: A431, peptide 0.5% and 1%, serum-free medium, 5th hour
Method: A431 cells were seeded in 96-well plates at a rate of 10,000 cells per well. After 24 hours, the culture medium was removed and replaced with serum-free medium containing the peptide quantities given in the graphs and reagent XTT. The plates were then placed in the incubator at 37° C. and absorbance readings were taken at 1 h, 2 h, 3 h, 4 h and 5 h. Peptide-free controls were carried out on the same plate.
The effect of the peptide on cell proliferation was analysed with the aid of a calorimetric test (Cell Proliferation Kit XTT, Roche Diagnostics, Meylan, France) on the cells use for the cell adhesion test, i.e. HT1080, A431, HBL100 cells and normal human keratinocytes from young and elderly individuals.
The chemical reaction used in the test is based on the production of NADPH by living cells, leading to the reduction of yellow tetrazolium XTT salts to orange formazan salts. Absorbance was measured at 490 nm using an ELISA plate reader. […] After 24 hours in culture at 37° C. with 5% CO2, the culture medium was removed and replaced with serum-free medium containing the peptide quantities given in the graphs and the test reagent. The plates were then placed in the incubator at 37° C. and absorbance readings were taken at 1 h, 2 h, 3 h, 4 h and 5 h. […] In this case, cell viability was calculated according to the following formula: % viability=(Abs. Cells with peptide/Abs. Control cells)×100.

## TALRIRATYGEY (Human laminin 5) [Peptide 1]
[1]; 0 to 10 micrograms immobilized peptide, 10^5 cells per well, 1 hour 37° C., absorbance 570 nm
  cell adhesion to immobilized peptide: effect also occurred
[1]; FIG. 5
  immobilized peptide quantity at which adhesion occurred: 0.15 micrograms
  immobilized peptide quantity at which maximum adhesion was achieved: 0.62 micrograms
[2]; HT1080, 0 to 10 micrograms immobilized peptide, 8×10^4 cells per well, 1 hour 37° C., absorbance 570 nm
  cell adhesion to immobilized peptide: led to cell adhesion
[2]; HT1080, FIG. 3
  immobilized peptide quantity at which adhesion occurred: 0.15 micrograms
  immobilized peptide quantity at which maximum adhesion was achieved: 0.15 micrograms
A431 cells
  mean increase in cell proliferation compared to the control: 8%
